In patent publication US20100017895A1, “Small animal model for hcv replication” (priority 2005, published 2010):

Columns and labels:
[1] = system: HCV replicon in T7-11 cells; test: Liver model with T7-11 replicon cells in gamma-irradiated SCID mice; assay type: in vivo; settings: 30 mg/kg SC once daily from day 25 post tumor cell implantation; within three days
Method: To evaluate the efficacy of IFN-α in liver, T7-11 cells were directly injected into one lobe of the liver in gamma irradiated SCID mice. […] To confirm that the luciferase signal was associated with the liver, the locations of tumors were determined by physical examination at the end of study
The antiviral effect of BILN 2061 on HCV replication was also examined. BILN 2061 was administered subcutaneously at 30 mg/kg once daily starting day 25-post tumor cell implantation.
Whole body in vivo imaging.

[2] = Pharmacokinetic (PK) data, subcutaneous route; assay type: in vivo
[3] = system: HCV replicon in T7-11 cells; test: Subcutaneous T7-11 replicon cell model in gamma-irradiated SCID mice (bioluminescence, NS5B IFA, RT-PCR, cPARP, Ki67)
Method: Efficacy studies with T7-11 implanted mice were initiated when the bioluminescence signal was stable and approximately two logs above background. […] Control animals received human albumin.
BILN 2061 was administered at 30 mg/kg once daily starting day 21-post subcutaneous implantation of T7-11 cells.
Cell implantation. Female SCID mice were shaved at the site of cell implantation and gamma-irradiated with 3 Gy either one-day prior to or on the same day as cell implant. For subcutaneous implantation, five million cells in 0.2 ml of HBSS were implanted at the right flank.
Whole body in vivo imaging. Anesthetized mice were injected intraperitoneally with 150 mg/kg of luciferin (Xenogen Corporation, Alameda, Calif.). After 10-20 minutes, mice were imaged using a CCD camera in the Xenogen IVIS™ imaging system. The bioluminescence signal intensity was quantified using Living Image Software (Xenogen Corporation, Alameda, Calif.).
Statistical analysis. Differences in bioluminescence signal between control and treatment groups of mice were compared by the two-tailed Mann-Whitney test. Differences in signal among the control, treatment and rebound groups of mice and among combination groups were compared by the nonparametric Kruskal-Wallis test A P-value <0.05 was considered significant.

Substance: BILN 2061
- fold decline in bioluminescence compared to the untreated control group [1]: 10 fold
- duration of sustained plasma exposure [2]: more than 24 hr
- signal after treatment was terminated ([3]; 30 mg/kg SC QD three days, several days after termination): returned to the levels similar to the untreated control group
- adverse effect on the replicon-containing cells ([3]; 30 mg/kg SC once daily for three days): did not have any adverse effect on the replicon-containing cells
- decrease of bioluminescence signal compared to the control group ([3]; 30 mg/kg SC once daily from day 21, within three days): approximately two
- fold decrease of mean bioluminescence signal as compared to the control group ([3]; two days after treatment, SC daily from day 18, BILN 2061 30 mg/kg and/or IFN-α 15,000 IU): 16 fold

Substance: Interleukin 2 [IL-2]
- effect on bioluminescence signal ([3]; 1 mg/kg, over 5 days of treatment): no effect
